This is an account of results in ChEMBL document CHEMBL4359841, “Late-Stage Functionalization of Platensimycin Leading to Multiple Analogues with Improved Antibacterial Activity in Vitro and in Vivo” (2019).

Active and inactive are the calls of the source. No rule for the calls is given here.

For the assay, the system named is Staphylococcus aureus. In words: Inhibition of FabB/FabF in methicillin-resistant Staphylococcus aureus assessed as antibacterial activity at 5 ug/disk after 18 hrs by agar disk diffusion method. Background: In agar diffusion tests the substance spreads into inoculated agar from a disc or well.
In the case of `C[C@]12C[C@@]34C=C(Sc5c(F)c(F)c(F)c(F)c5F)C(=O)[C@@](C)(CCC(=O)Nc5c(O)ccc(C(=O)O)c5O)[C@@H]3[C@H](C[C@@H]1C4)O2`, the “antibacterial activity (disk diffusion, qualitative)” value (“antibacterial activity” below) was “Active”.
Then `C[C@]12C[C@@]34C=C(Sc5ccc(-c6cccc(O)c6)cc5)C(=O)[C@@](C)(CCC(=O)Nc5c(O)ccc(C(=O)O)c5O)[C@@H]3[C@H](C[C@@H]1C4)O2`, with “Active”; and `C[C@]12C[C@@]34C=C(Sc5cccc(-c6ccccc6F)c5)C(=O)[C@@](C)(CCC(=O)Nc5c(O)ccc(C(=O)O)c5O)[C@@H]3[C@H](C[C@@H]1C4)O2`, with “Active”.
Then `C[C@]12C[C@@]34C=C(Sc5cccc(C#Cc6cccc(F)c6)c5)C(=O)[C@@](C)(CCC(=O)Nc5c(O)ccc(C(=O)O)c5O)[C@@H]3[C@H](C[C@@H]1C4)O2`, with “Active”.
Then `COC(=O)/C=C/c1ccc(SC2=C[C@]34C[C@H]5C[C@H](O[C@@]5(C)C3)[C@H]4[C@](C)(CCC(=O)Nc3c(O)ccc(C(=O)O)c3O)C2=O)cc1`, with “Active”.
With `C[C@]12C[C@@]34C=C(Sc5cccc(C#Cc6ccc(F)cc6)c5)C(=O)[C@@](C)(CCC(=O)Nc5c(O)ccc(C(=O)O)c5O)[C@@H]3[C@H](C[C@@H]1C4)O2`, the “antibacterial activity” value is “Active”.
Then `C[C@]12C[C@@]34C=C(SCc5ccco5)C(=O)[C@@](C)(CCC(=O)Nc5c(O)ccc(C(=O)O)c5O)[C@@H]3[C@H](C[C@@H]1C4)O2`, with “Active”; and `CNC(=O)/C=C/c1cccc(SC2=C[C@]34C[C@H]5C[C@H](O[C@@]5(C)C3)[C@H]4[C@](C)(CCC(=O)Nc3c(O)ccc(C(=O)O)c3O)C2=O)c1`, with “Active”; and `COc1ccccc1-c1ccc(SC2=C[C@]34C[C@H]5C[C@H](O[C@@]5(C)C3)[C@H]4[C@](C)(CCC(=O)Nc3c(O)ccc(C(=O)O)c3O)C2=O)cc1`, with “Active”.
As for `C[C@]12C[C@@]34C=C(Sc5ccc(C(=O)O)cc5)C(=O)[C@@](C)(CCC(=O)Nc5c(O)ccc(C(=O)O)c5O)[C@@H]3[C@H](C[C@@H]1C4)O2`, the “antibacterial activity” value was “Active”.
Then `CCCCC#Cc1cccc(SC2=C[C@]34C[C@H]5C[C@H](O[C@@]5(C)C3)[C@H]4[C@](C)(CCC(=O)Nc3c(O)ccc(C(=O)O)c3O)C2=O)c1`, with “Active”; and `CC(C)(C)NC(=O)/C=C/c1ccc(SC2=C[C@]34C[C@H]5C[C@H](O[C@@]5(C)C3)[C@H]4[C@](C)(CCC(=O)Nc3c(O)ccc(C(=O)O)c3O)C2=O)cc1`, with “Active”; and `CCSC1=C[C@]23C[C@H]4C[C@H](O[C@@]4(C)C2)[C@H]3[C@](C)(CCC(=O)Nc2c(O)ccc(C(=O)O)c2O)C1=O`, with “Active”.
Then `C[C@]12C[C@@]34C=C(Sc5cccc(-c6ccccc6)c5)C(=O)[C@@](C)(CCC(=O)Nc5c(O)ccc(C(=O)O)c5O)[C@@H]3[C@H](C[C@@H]1C4)O2`, with “Active”; and `COC(=O)/C=C/c1cccc(SC2=C[C@]34C[C@H]5C[C@H](O[C@@]5(C)C3)[C@H]4[C@](C)(CCC(=O)Nc3c(O)ccc(C(=O)O)c3O)C2=O)c1`, with “Active”.
Then `C[C@]12C[C@@]34C=C(Sc5ccc(C#CC6CC6)cc5)C(=O)[C@@](C)(CCC(=O)Nc5c(O)ccc(C(=O)O)c5O)[C@@H]3[C@H](C[C@@H]1C4)O2`, with “Active”; and `C[C@]12C[C@@]34C=C(Sc5cc(Cl)cc(Cl)c5)C(=O)[C@@](C)(CCC(=O)Nc5c(O)ccc(C(=O)O)c5O)[C@@H]3[C@H](C[C@@H]1C4)O2`, with “Active”.
For `CCCCc1ccc(C#Cc2cccc(SC3=C[C@]45C[C@H]6C[C@H](O[C@@]6(C)C4)[C@H]5[C@](C)(CCC(=O)Nc4c(O)ccc(C(=O)O)c4O)C3=O)c2)cc1`, the “antibacterial activity” value was “Active”.
The same measure for `C[C@]12C[C@@]34C=C(Sc5ccc(-c6ccc(C=O)cc6)cc5)C(=O)[C@@](C)(CCC(=O)Nc5c(O)ccc(C(=O)O)c5O)[C@@H]3[C@H](C[C@@H]1C4)O2`: “Active”.
In the case of `C[C@]12C[C@@]34C=C(Sc5cccc(-c6ccc(C=O)cc6)c5)C(=O)[C@@](C)(CCC(=O)Nc5c(O)ccc(C(=O)O)c5O)[C@@H]3[C@H](C[C@@H]1C4)O2`, the “antibacterial activity” value is “Active”.
With `CCCCc1ccc(SC2=C[C@]34C[C@H]5C[C@H](O[C@@]5(C)C3)[C@H]4[C@](C)(CCC(=O)Nc3c(O)ccc(C(=O)O)c3O)C2=O)cc1`, the “antibacterial activity” value is “Active”.
With `CNC(=O)/C=C/c1ccc(SC2=C[C@]34C[C@H]5C[C@H](O[C@@]5(C)C3)[C@H]4[C@](C)(CCC(=O)Nc3c(O)ccc(C(=O)O)c3O)C2=O)cc1`, the “antibacterial activity” value was “Active”.
With `C[C@]12C[C@@]34C=C(Sc5ccc(C#Cc6ccc(C(=O)O)cc6)cc5)C(=O)[C@@](C)(CCC(=O)Nc5c(O)ccc(C(=O)O)c5O)[C@@H]3[C@H](C[C@@H]1C4)O2`, the “antibacterial activity” value was “Active”.
The same measure for `C[C@]12C[C@@]34C=C(Sc5ccc(-c6ccccc6F)cc5)C(=O)[C@@](C)(CCC(=O)Nc5c(O)ccc(C(=O)O)c5O)[C@@H]3[C@H](C[C@@H]1C4)O2`: “Active”; for `C[C@]12C[C@@]34C=C(Sc5cccc(Br)c5)C(=O)[C@@](C)(CCC(=O)Nc5c(O)ccc(C(=O)O)c5O)[C@@H]3[C@H](C[C@@H]1C4)O2`: “Active”.
Then `C[C@]12C[C@@]34C=C(Sc5cccc(C#CC6CC6)c5)C(=O)[C@@](C)(CCC(=O)Nc5c(O)ccc(C(=O)O)c5O)[C@@H]3[C@H](C[C@@H]1C4)O2`, with “Active”; and `C[C@]12C[C@@]34C=C(Sc5ccc(/C=C/C(=O)O)cc5)C(=O)[C@@](C)(CCC(=O)Nc5c(O)ccc(C(=O)O)c5O)[C@@H]3[C@H](C[C@@H]1C4)O2`, with “Active”.
Then `COc1ccc(SC2=C[C@]34C[C@H]5C[C@H](O[C@@]5(C)C3)[C@H]4[C@](C)(CCC(=O)Nc3c(O)ccc(C(=O)O)c3O)C2=O)cc1`, with “Active”; and `C[C@]12C[C@@]34C=C(Sc5cccs5)C(=O)[C@@](C)(CCC(=O)Nc5c(O)ccc(C(=O)O)c5O)[C@@H]3[C@H](C[C@@H]1C4)O2`, with “Active”; and `CCCCC#Cc1ccc(SC2=C[C@]34C[C@H]5C[C@H](O[C@@]5(C)C3)[C@H]4[C@](C)(CCC(=O)Nc3c(O)ccc(C(=O)O)c3O)C2=O)cc1`, with “Active”.
Take `C[C@]12C[C@@]34C=C(Sc5cccc(Cl)c5)C(=O)[C@@](C)(CCC(=O)Nc5c(O)ccc(C(=O)O)c5O)[C@@H]3[C@H](C[C@@H]1C4)O2`: the “antibacterial activity” value is “Active”.
Take `COc1ccc(C#Cc2cccc(SC3=C[C@]45C[C@H]6C[C@H](O[C@@]6(C)C4)[C@H]5[C@](C)(CCC(=O)Nc4c(O)ccc(C(=O)O)c4O)C3=O)c2)cc1`: the “antibacterial activity” value was “Active”.
Then `C[C@]12C[C@@]34C=C(Sc5cccc(-c6cccc(O)c6)c5)C(=O)[C@@](C)(CCC(=O)Nc5c(O)ccc(C(=O)O)c5O)[C@@H]3[C@H](C[C@@H]1C4)O2`, with “Active”; and `Cc1occc1SC1=C[C@]23C[C@H]4C[C@H](O[C@@]4(C)C2)[C@H]3[C@](C)(CCC(=O)Nc2c(O)ccc(C(=O)O)c2O)C1=O`, with “Active”.
Then `CCN(CC)CC#Cc1cccc(SC2=C[C@]34C[C@H]5C[C@H](O[C@@]5(C)C3)[C@H]4[C@](C)(CCC(=O)Nc3c(O)ccc(C(=O)O)c3O)C2=O)c1`, with “Active”.
Consider `C[C@]12C[C@@]34C=C(Sc5cccc6ccccc56)C(=O)[C@@](C)(CCC(=O)Nc5c(O)ccc(C(=O)O)c5O)[C@@H]3[C@H](C[C@@H]1C4)O2`, for which the “antibacterial activity” value is “Active”.
With `C[C@]12C[C@@]34C=C(Sc5ccc(-c6ccccc6)cc5)C(=O)[C@@](C)(CCC(=O)Nc5c(O)ccc(C(=O)O)c5O)[C@@H]3[C@H](C[C@@H]1C4)O2`, the “antibacterial activity” value was “Active”.
The same measure for `C[C@]12C[C@@]34C=C(Sc5cccc(-c6cccnc6)c5)C(=O)[C@@](C)(CCC(=O)Nc5c(O)ccc(C(=O)O)c5O)[C@@H]3[C@H](C[C@@H]1C4)O2`: “Active”.
The same measure for `Cc1ccc(C#Cc2cccc(SC3=C[C@]45C[C@H]6C[C@H](O[C@@]6(C)C4)[C@H]5[C@](C)(CCC(=O)Nc4c(O)ccc(C(=O)O)c4O)C3=O)c2)cc1`: “Active”.
The same measure for `CC(C)(C)OC(=O)/C=C/c1cccc(SC2=C[C@]34C[C@H]5C[C@H](O[C@@]5(C)C3)[C@H]4[C@](C)(CCC(=O)Nc3c(O)ccc(C(=O)O)c3O)C2=O)c1`: “Active”; for `CN(C)C(=O)/C=C/c1cccc(SC2=C[C@]34C[C@H]5C[C@H](O[C@@]5(C)C3)[C@H]4[C@](C)(CCC(=O)Nc3c(O)ccc(C(=O)O)c3O)C2=O)c1`: “Active”.
For the molecule `CC(C)(C)C#Cc1cccc(SC2=C[C@]34C[C@H]5C[C@H](O[C@@]5(C)C3)[C@H]4[C@](C)(CCC(=O)Nc3c(O)ccc(C(=O)O)c3O)C2=O)c1`, the “antibacterial activity” value was “Active”.
In the case of `C[C@]12C[C@@]34C=C(Sc5ccc(-c6cccnc6)cc5)C(=O)[C@@](C)(CCC(=O)Nc5c(O)ccc(C(=O)O)c5O)[C@@H]3[C@H](C[C@@H]1C4)O2`, the “antibacterial activity” value is “Active”.
As to `C[C@]12C[C@@]34C=C(Sc5cccc(C#Cc6ccc(Cl)cc6)c5)C(=O)[C@@](C)(CCC(=O)Nc5c(O)ccc(C(=O)O)c5O)[C@@H]3[C@H](C[C@@H]1C4)O2`, the “antibacterial activity” value is “Active”.
Then `C[C@]12C[C@@]34C=C(Sc5ccccc5C(=O)O)C(=O)[C@@](C)(CCC(=O)Nc5c(O)ccc(C(=O)O)c5O)[C@@H]3[C@H](C[C@@H]1C4)O2`, with “Active”; and `C[C@]12C[C@@]34C=C(Sc5cccc(-c6ccco6)c5)C(=O)[C@@](C)(CCC(=O)Nc5c(O)ccc(C(=O)O)c5O)[C@@H]3[C@H](C[C@@H]1C4)O2`, with “Active”.
